Where only a bound is given, the exact number is not on record here.

Assay [1] has as its target T1, Corticotropin-releasing factor receptor 1 (Mus musculus, UniProt P35347).
T1 sequence (P35347 whole entry): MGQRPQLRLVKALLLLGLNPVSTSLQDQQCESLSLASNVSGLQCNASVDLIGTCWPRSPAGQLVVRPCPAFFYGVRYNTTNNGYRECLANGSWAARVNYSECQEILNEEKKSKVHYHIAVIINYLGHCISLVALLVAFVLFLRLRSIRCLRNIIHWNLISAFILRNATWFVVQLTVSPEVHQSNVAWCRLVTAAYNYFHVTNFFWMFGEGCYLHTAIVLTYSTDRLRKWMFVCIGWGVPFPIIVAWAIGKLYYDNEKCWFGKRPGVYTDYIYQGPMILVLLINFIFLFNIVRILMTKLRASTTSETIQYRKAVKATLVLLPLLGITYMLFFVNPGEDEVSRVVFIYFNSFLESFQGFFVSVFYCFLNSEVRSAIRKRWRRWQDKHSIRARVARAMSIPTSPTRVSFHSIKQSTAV
Briefly: In vitro effective concentration for mouse corticotropin releasing factor 1 receptor.

The target in assay [2] is Corticotropin-releasing factor receptor 2 (Mus musculus, UniProt Q60748). The assay can be described thus: In vitro effective concentration for mouse corticotropin releasing factor 2 receptor.
The target of assay [3] is T2, Corticotropin-releasing factor receptor 1 (Mus musculus) (UniProt P35347).
T2 sequence (whole entry): T1 sequence (P35347 whole entry)
The assay can be described thus: In vitro agonistic activity against mouse corticotropin releasing factor 1 receptor. It is filed as functional.

The target of assay [4] is Corticotropin-releasing factor receptor 2 (Mus musculus) (UniProt Q60748). The assay can be described thus: In vitro agonistic activity against mouse corticotropin releasing factor 2 receptor. Type of assay: functional.
Assay [5] is filed under the species Mus musculus. Briefly: Selectivity ratio of EC50s for mouse corticotropin releasing factor receptors 1 and 2.

Chain of Corticotropin-releasing factor receptor 2 (Q60748 whole entry): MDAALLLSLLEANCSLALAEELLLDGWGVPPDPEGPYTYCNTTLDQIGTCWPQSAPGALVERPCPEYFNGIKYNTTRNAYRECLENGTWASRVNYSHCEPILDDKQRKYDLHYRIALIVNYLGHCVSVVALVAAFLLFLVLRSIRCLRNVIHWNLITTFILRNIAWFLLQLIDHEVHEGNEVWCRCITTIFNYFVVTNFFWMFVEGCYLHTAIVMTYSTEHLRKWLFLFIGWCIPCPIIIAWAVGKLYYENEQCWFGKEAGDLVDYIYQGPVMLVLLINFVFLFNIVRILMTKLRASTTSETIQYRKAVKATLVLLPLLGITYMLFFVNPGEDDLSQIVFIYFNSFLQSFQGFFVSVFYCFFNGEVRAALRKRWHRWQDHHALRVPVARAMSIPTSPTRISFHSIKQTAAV
Chain of Corticotropin-releasing factor receptor 2 (Mus musculus) (Q60748 whole entry): as above

As usually defined, the EC50 is the concentration needed to bring the measured effect to its halfway point. High values mean a need for much substance, low ones an effect from little substance. Usually Emax stands for the maximal effect, on the per cent scale that the assay sets. On to `CC[C@H](C)[C@H](NC(=O)[C@@H](NC(=O)[C@H](CC(=O)O)NC(=O)[C@H](CC(C)C)NC(=O)[C@H](CC(C)C)NC(=O)[C@H](CC(C)C)NC(=O)[C@H](CCCN=C(N)N)NC(=O)[C@H](CC(N)=O)NC(=O)[C@H](CC(N)=O)NC(=O)[C@H](C)NC(=O)[C@H](C)NC(=O)[C@H](CCC(N)=O)NC(=O)[C@H](CCC(N)=O)NC(=O)[C@H](CCCCN)NC(=O)[C@H](CCC(=O)O)NC(=O)[C@H](CCCCN)NC(=O)[C@H](CCC(=O)O)NC(=O)[C@H](CCC(N)=O)NC(=O)[C@H](CCCCN)NC(=O)[C@H](CCC(=O)O)NC(=O)[C@@H](NC(=O)[C@H](CCC(=O)O)NC(=O)[C@@H](NC(=O)[C@H](CCSC)NC(=O)[C@H](CCCCN)NC(=O)[C@H](CCCN=C(N)N)NC(=O)[C@H](CC(C)C)NC(=O)[C@H](CC(C)C)NC(=O)[C@H](Cc1c[nH]cn1)NC(=O)[C@H](Cc1ccc(O)cc1)NC(=O)[C@@H]1CCCN1C(=O)[C@H](CC(C)C)NC(=O)[C@H](CC(=O)O)NC(=O)[C@@H](NC(=O)[C@H](CO)NC(=O)[C@@H](NC(=O)[C@@H]1CCCN1C(=O)[C@@H]1CCCN1C(=O)CNC(=O)[C@@H]1CCC(=O)N1)[C@@H](C)CC)[C@@H](C)CC)[C@@H](C)CC)[C@@H](C)CC)[C@@H](C)O)C(=O)O`, for which the EC50 in assay [1] was 64.9 nM; in assay [2], 5.6 nM. The values for the Emax in assay [3] and in assay [4] were 81% and 88%, respectively. In addition, the Selectivity in assay [5] worked out at 13.
The matching figures for `CC[C@H](C)[C@H](NC(=O)[C@@H](NC(=O)[C@H](CC(=O)O)NC(=O)[C@H](CC(C)C)NC(=O)[C@H](CC(C)C)NC(=O)[C@H](CC(C)C)NC(=O)[C@H](CCCN=C(N)N)NC(=O)[C@H](CC(N)=O)NC(=O)[C@H](CC(N)=O)NC(=O)[C@H](C)NC(=O)[C@H](C)NC(=O)[C@H](CCC(N)=O)NC(=O)[C@H](CCC(N)=O)NC(=O)[C@H](CCCCN)NC(=O)[C@H](CCC(=O)O)NC(=O)[C@H](CCCCN)NC(=O)[C@H](CCC(=O)O)NC(=O)[C@H](CCC(N)=O)NC(=O)[C@H](CCCCN)NC(=O)[C@H](CCC(=O)O)NC(=O)[C@@H](NC(=O)[C@H](CCC(=O)O)NC(=O)[C@@H](NC(=O)[C@H](CCSC)NC(=O)[C@H](CCCCN)NC(=O)[C@H](CCCN=C(N)N)NC(=O)[C@H](CC(C)C)NC(=O)[C@H](CC(C)C)NC(=O)[C@@H](NC(=O)[C@@H](NC(=O)[C@@H]1CCCN1C(=O)[C@H](CC(C)C)NC(=O)[C@H](CC(=O)O)NC(=O)[C@@H](NC(=O)[C@H](CO)NC(=O)[C@@H](NC(=O)[C@@H]1CCCN1C(=O)[C@@H]1CCCN1C(=O)CNC(=O)[C@@H]1CCC(=O)N1)[C@@H](C)CC)[C@@H](C)CC)[C@@H](C)CC)[C@@H](C)CC)[C@@H](C)CC)[C@@H](C)CC)[C@@H](C)O)C(=O)O`: greater than 1000 nM, 14.8 nM, 4%, 73% and greater than 68.
On to `CC[C@H](C)[C@H](NC(=O)[C@@H](NC(=O)[C@H](CC(=O)O)NC(=O)[C@H](CC(C)C)NC(=O)[C@H](CC(C)C)NC(=O)[C@H](CC(C)C)NC(=O)[C@H](CCCN=C(N)N)NC(=O)[C@H](CC(N)=O)NC(=O)[C@H](CC(N)=O)NC(=O)[C@H](C)NC(=O)[C@H](C)NC(=O)[C@H](CCC(N)=O)NC(=O)[C@H](CCC(N)=O)NC(=O)[C@H](CCCCN)NC(=O)[C@H](CCC(=O)O)NC(=O)[C@H](CCCCN)NC(=O)[C@H](CCC(=O)O)NC(=O)[C@H](CCC(N)=O)NC(=O)[C@H](CCCCN)NC(=O)[C@H](CCC(=O)O)NC(=O)[C@@H](NC(=O)[C@H](CCC(=O)O)NC(=O)[C@@H](NC(=O)[C@H](CCSC)NC(=O)[C@H](CCCCN)NC(=O)[C@H](CCCN=C(N)N)NC(=O)[C@H](CC(C)C)NC(=O)[C@H](CC(C)C)NC(=O)[C@H](Cc1ccccc1)NC(=O)[C@H](Cc1c[nH]cn1)NC(=O)[C@@H]1CCCN1C(=O)[C@H](CC(C)C)NC(=O)[C@H](CC(=O)O)NC(=O)[C@@H](NC(=O)[C@H](CO)NC(=O)[C@@H](NC(=O)[C@@H]1CCCN1C(=O)[C@@H]1CCCN1C(=O)CNC(=O)[C@@H]1CCC(=O)N1)[C@@H](C)CC)[C@@H](C)CC)[C@@H](C)CC)[C@@H](C)CC)[C@@H](C)O)C(=O)O`, for which the results for the 50% effective concentration (EC50) in assay [1] and in assay [2] were 80.9 nM and 7.8 nM, respectively. The Emax in assay [3] was determined as 100%; in assay [4] it was 98%. Moreover, the Selectivity in assay [5] worked out at 10.
On the same counts, the results for `CC[C@H](C)[C@H](NC(=O)[C@@H](NC(=O)[C@H](CC(=O)O)NC(=O)[C@H](CC(C)C)NC(=O)[C@H](CC(C)C)NC(=O)[C@H](CC(C)C)NC(=O)[C@H](CCCN=C(N)N)NC(=O)[C@H](CC(N)=O)NC(=O)[C@H](CC(N)=O)NC(=O)[C@H](C)NC(=O)[C@H](C)NC(=O)[C@H](CCC(N)=O)NC(=O)[C@H](CCC(N)=O)NC(=O)[C@H](CCCCN)NC(=O)[C@H](CCC(=O)O)NC(=O)[C@H](CCCCN)NC(=O)[C@H](CCC(=O)O)NC(=O)[C@H](CCC(N)=O)NC(=O)[C@H](CCCCN)NC(=O)[C@H](CCC(=O)O)NC(=O)[C@@H](NC(=O)[C@H](CCC(=O)O)NC(=O)[C@@H](NC(=O)[C@H](CCSC)NC(=O)[C@H](CCCCN)NC(=O)[C@H](CCCN=C(N)N)NC(=O)[C@H](CC(C)C)NC(=O)[C@H](CC(C)C)NC(=O)[C@H](Cc1ccc(O)cc1)NC(=O)[C@H](C)NC(=O)[C@@H]1CCCN1C(=O)[C@H](CC(C)C)NC(=O)[C@H](CC(=O)O)NC(=O)[C@@H](NC(=O)[C@H](CO)NC(=O)[C@@H](NC(=O)[C@@H]1CCCN1C(=O)[C@@H]1CCCN1C(=O)CNC(=O)[C@@H]1CCC(=O)N1)[C@@H](C)CC)[C@@H](C)CC)[C@@H](C)CC)[C@@H](C)CC)[C@@H](C)O)C(=O)O` are 606 nM, 20.2 nM, 95%, 98% and 30.
The matching figures for `CC[C@H](C)[C@H](NC(=O)[C@@H](NC(=O)[C@H](CC(=O)O)NC(=O)[C@H](CC(C)C)NC(=O)[C@H](CC(C)C)NC(=O)[C@H](CC(C)C)NC(=O)[C@H](CCCN=C(N)N)NC(=O)[C@H](CC(N)=O)NC(=O)[C@H](CC(N)=O)NC(=O)[C@H](C)NC(=O)[C@H](C)NC(=O)[C@H](CCC(N)=O)NC(=O)[C@H](CCC(N)=O)NC(=O)[C@H](CCCCN)NC(=O)[C@H](CCC(=O)O)NC(=O)[C@H](CCCCN)NC(=O)[C@H](CCC(=O)O)NC(=O)[C@H](CCC(N)=O)NC(=O)[C@H](CCCCN)NC(=O)[C@H](CCC(=O)O)NC(=O)[C@@H](NC(=O)[C@H](CCC(=O)O)NC(=O)[C@@H](NC(=O)[C@H](CCSC)NC(=O)[C@H](CCCCN)NC(=O)[C@H](CCCN=C(N)N)NC(=O)[C@H](CC(C)C)NC(=O)[C@H](CC(C)C)NC(=O)[C@H](Cc1ccccc1)NC(=O)[C@@H](NC(=O)[C@@H]1CCCN1C(=O)[C@H](CC(C)C)NC(=O)[C@H](CC(=O)O)NC(=O)[C@@H](NC(=O)[C@H](CO)NC(=O)[C@@H](NC(=O)[C@@H]1CCCN1C(=O)[C@@H]1CCCN1C(=O)CNC(=O)[C@@H]1CCC(=O)N1)[C@@H](C)CC)[C@@H](C)CC)[C@@H](C)CC)[C@@H](C)CC)[C@@H](C)CC)[C@@H](C)O)C(=O)O`: 756 nM, 12.8 nM, 83%, 100% and 59.

(Values after ChEMBL document CHEMBL1139487, “Discovery of corticotropin releasing factor 2 receptor selective sauvagine analogues for treatment of skeletal muscle atrophy” (J Med Chem, 2005).)
